Assay results as given in patent US9169237B1, “Antiprotozoal amidine compounds” (Medi Synergics, LLC, priority 2014, dated 2015).

Tested on: T. brucei brucei
Assay: T. brucei brucei growth inhibition assay
Format: cell-based, Trypanosoma brucei brucei clone 427-221a (bloodstream forms)
Conditions: Trypanosoma brucei; bloodstream forms, T. brucei brucei clone 427-221a; 40 hours at 37° C.; 0.5% DMSO; ATP-bioluminescence; read-out: IC50 (μM) (95% Confidence Intervals)
Experimental: The growth inhibition assay for T. brucei brucei was conducted as described previously by Z. B. Mackey et al (Kenny K. H. Ang, Joseline Ratnam, Jiri Gut, Jennifer Legac, Elizabeth Hansell, Zachary B. Mackey, Katarzyna M. Skrzypczynska, Anjan Debnath, Juan C. Engel, Philip J. Rosenthal, James H. McKerrow, Michelle R. Arkin, Adam R. Renslo (2011) “Mining a Cathepsin Inhibitor Library for New Antiparasitic Drug Leads”, PLoS Neglected Tropical Diseases, 5(5):e1023). Bloodstream forms of the monomorphic T. brucei brucei clone 427-221a were grown in complete HMI-9 medium containing 10% FBS, 10% Serum Plus medium (Sigma Inc., St. Louis, Mo., USA), 50 U/mL penicillin and […] streptomycin (Invitrogen) at 37° C. under a humidified atmosphere and 5% CO2. Inhibitor stocks were prepared in 100% DMSO and screened at […] for percent inhibition values or serially diluted from […] in 10% DMSO for […] determinations. […] of each dilution was added to […] of diluted parasites ([…]) in sterile Greiner 96-well flat white opaque culture plates such that the final DMSO concentration was 0.5%. The 0% inhibition control wells contained 0.5% DMSO while 100% inhibition control wells contained […] thimerosal (Sigma). After compound addition, plates were incubated for 40 hours at 37° C. At the end of the incubation period, […] of CellTiter-GIo™ reagent (Promega Inc., Madison, Wis., USA) was added to each well and plates were placed on an orbital shaker at room temperature for 2 min to induce lysis. After an additional 10 min of incubation without shaking to stabilize the signal, the ATP-bioluminescence of each well was determined using an Analyst HT plate reader (Molecular Devices, Sunnyvale, Calif., USA). Raw values were converted to log 10 and percentage inhibition calculated relative to the controls. IC50 curve fittings were performed with Prism 4 software as above. Pentamidine was used as a comparator in the assay.

Row | SMILES | IC50
1 | CN(CCCC1(c2ccc(F)cc2)OCc2cc(C#N)ccc21)C1=NCCCC1 (stereo not drawn) [Example 3, 1-(4-fluorophenyl)-1-{3-[methyl(3,4,5,6-tetrahydropyridin-2-yl)amino]propyl}-1,3-dihydro-2-benzo-furan-5-carbonitrile] | 20 µM
2 | CN(CCCC1(c2ccc(F)cc2)OCc2cc(C#N)ccc21)C(=N)c1ccccc1 (stereo not drawn) [Example 2, N-{3-[5-cyano-1-(4-fluorophenyl)-1,3-dihydro-2-benzofuran-1-yl]propyl}-N-methyl-phenylmethanimidamide] | 1.1 µM
3 | CC(=N)N(C)CCCC1(c2ccc(F)cc2)OCc2cc(C#N)ccc21 (stereo not drawn) [Example 1, N-{3-[5-cyano-1-(4-fluorophenyl)-1,3-dihydro-2-benzofuran-1-yl]propyl}-N-methyl-ethanimidamide] | 10 µM
